Data as given in patent US20130017537A1, “METHOD OF IN-VITRO IMMUNOASSAY” (BASF Beauty Care Solutions France S.A.S., priority 2011, published 2013).

Test system: type V collagen in the ECM
Assay: Influence of the lysis solution on the assay of type V collagen in the ECM
Format: cell-based, human
Details: for Ratio: Coll/DNA % (NH4OH = 100): repeat experiment, Table 3.2; for Ratio: Coll/DNA % (20 mM = 100.00): Table 3.3
Protocol: Thus, normal human fibroblasts obtained from abdominal biopsies were seeded in a 96-well plate and cultured in a defined medium (FGM) to 100% confluency.
After 48 hours of culture postconfluency at 37° C. under 0.5% CO2, the culture medium was collected.
The time of application of the lysis solution tested was 10 minutes at room temperature and with stirring.
The collagen V in the ECM was assayed directly on the ECM by using an anticollagen V antibody. A secondary antibody conjugated to europium was used with a detection reagent and the fluorescence was measured. (Delfia® kit—Perkin Elmer).
The experiment was repeated and the lysis solutions tested were as follows: • solution according to the invention NH4OH: 110 μl of an ammonium hydroxide solution at concentrations between 200 μM and 2 M. • Solution of monoethylamine at 20 Mm • Solution of diethylamine at 20 mM • Solution of triethylamine at 20 mM

Row | SMILES | Ratio: Coll/DNA % (NH4OH = 100) [%] | Ratio: Coll/DNA % (20 mM = 100.00) (NH4OH 200 μM) [%] | Ratio: Coll/DNA % (20 mM = 100.00) (NH4OH 2 mM) [%] | Ratio: Coll/DNA % (20 mM = 100.00) (NH4OH 20 mM) [%] | Ratio: Coll/DNA % (20 mM = 100.00) (NH4OH 200 mM) [%] | Ratio: Coll/DNA % (20 mM = 100.00) (NH4OH 2M) [%]
1 | CCN [Monoethylamine, monoethylamine] | 23.78 | – | – | – | – | –
2 | N [NH4OH, ammonium hydroxide] | 100 | 117.43 | 131.56 | 100.00 | 86.47 | 67.67
